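Grown in 96-well plates, cells were treated for 48 hours with each compound at five concentrations. Insufficient inhibition: endpoint recorded as highest concentration tested. GI50 = concentration required for 50% inhibition of growth.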 Calls of active or inactive are those of the source. Rule as the data show it: active = GI50 up to about 1.1 µM and inactive = higher.
Legend:
Assay in all cases: NCI tumour cell line growth inhibition, 48 h
786-0 = tested on: 786-0
A549 = tested on: A549
ACHN = tested on: ACHN
BT-549 = tested on: BT-549
CAKI-1 = tested on: CAKI-1
CCRF-CEM = tested on: CCRF-CEM
COLO 205 = tested on: COLO 205
DU-145 = tested on: DU-145
EKVX = tested on: EKVX
HCC 2998 = tested on: HCC 2998
HCT-116 = tested on: HCT-116
HCT-15 = tested on: HCT-15
HL-60 = tested on: HL-60
HOP-62 = tested on: HOP-62
HT-29 = tested on: HT-29
IGROV-1 = tested on: IGROV-1
K562 = tested on: K562
KM12 = tested on: KM12
LOX IMVI = tested on: LOX IMVI
M14 = tested on: M14
MCF7 = tested on: MCF7
MDA-MB-231 = tested on: MDA-MB-231
MDA-MB-435 = tested on: MDA-MB-435
MDA-N = tested on: MDA-N
MOLT-4 = tested on: MOLT-4
Malme-3M = tested on: Malme-3M
NCI-H226 = tested on: NCI-H226
NCI-H23 = tested on: NCI-H23
NCI-H460 = tested on: NCI-H460
NCI-H522 = tested on: NCI-H522
NCI/ADR-RES = tested on: NCI/ADR-RES
OVCAR-3 = tested on: OVCAR-3
OVCAR-4 = tested on: OVCAR-4
OVCAR-5 = tested on: OVCAR-5
OVCAR-8 = tested on: OVCAR-8
PC-3 = tested on: PC-3
RPMI-8226 = tested on: RPMI-8226
RXF 393 = tested on: RXF 393
SF-268 = tested on: SF-268
SF-295 = tested on: SF-295
SF-539 = tested on: SF-539
SK-MEL-28 = tested on: SK-MEL-28
SK-MEL-2 = tested on: SK-MEL-2
SK-MEL-5 = tested on: SK-MEL-5
SK-OV-3 = tested on: SK-OV-3
SN12C = tested on: SN12C
SNB-19 = tested on: SNB-19
SNB-75 = tested on: SNB-75
T47D = tested on: T47D
TK-10 = tested on: TK-10
U-251 = tested on: U-251
UACC-257 = tested on: UACC-257
UACC-62 = tested on: UACC-62
UO-31 = tested on: UO-31
A498 = tested on: A498
SR = tested on: SR
SW-620 = tested on: SW-620

Measured: GI50

CC(C)(C)OC(=O)N/N=C(/N)c1ccccc1
> 100 µM: HCT-15
inactive: 786-0 > 100 µM | A549 > 100 µM | ACHN > 100 µM | BT-549 > 100 µM | CAKI-1 > 100 µM | CCRF-CEM > 100 µM | COLO 205 > 100 µM | DU-145 > 100 µM | EKVX > 100 µM | HCC 2998 > 100 µM | HCT-116 > 100 µM | HL-60 6.55 µM | HOP-62 > 100 µM | HT-29 > 100 µM | IGROV-1 > 100 µM | K562 > 100 µM | KM12 > 100 µM | LOX IMVI > 100 µM | M14 > 100 µM | MCF7 > 100 µM | MDA-MB-231 > 100 µM | MDA-MB-435 > 100 µM | MDA-N > 100 µM | MOLT-4 > 100 µM | Malme-3M > 100 µM | NCI-H226 > 100 µM | NCI-H23 > 100 µM | NCI-H460 > 100 µM | NCI-H522 > 100 µM | NCI/ADR-RES > 100 µM | OVCAR-3 > 100 µM | OVCAR-4 > 100 µM | OVCAR-5 > 100 µM | OVCAR-8 > 100 µM | PC-3 > 100 µM | RPMI-8226 > 100 µM | RXF 393 > 100 µM | SF-268 > 100 µM | SF-295 > 100 µM | SF-539 > 100 µM | SK-MEL-28 > 100 µM | SK-MEL-2 > 100 µM | SK-MEL-5 > 100 µM | SK-OV-3 > 100 µM | SN12C > 100 µM | SNB-19 > 100 µM | SNB-75 > 100 µM | T47D > 100 µM | TK-10 > 100 µM | U-251 > 100 µM | UACC-257 > 100 µM | UACC-62 > 100 µM | UO-31 > 100 µM

O=C(/N=N/c1cccc(Cl)c1)NNc1cccc(Cl)c1
17.6 µM: HCT-15
inactive: 786-0 15.1 µM | A498 17.7 µM | A549 24.5 µM | ACHN 9.25 µM | BT-549 > 10 µM | CAKI-1 18.1 µM | CCRF-CEM 18.2 µM | DU-145 17.5 µM | HCC 2998 14.7 µM | HCT-116 8.22 µM | HL-60 16.7 µM | HOP-62 5.3 µM | HT-29 22.9 µM | IGROV-1 17.5 µM | K562 10.6 µM | LOX IMVI 12.9 µM | M14 14.4 µM | MDA-MB-231 23.2 µM | MDA-MB-435 11.5 µM | MDA-N 13.1 µM | MOLT-4 10.9 µM | Malme-3M 16.7 µM | NCI-H226 23.9 µM | NCI-H23 26.2 µM | NCI-H460 15.5 µM | NCI-H522 21.9 µM | OVCAR-3 15 µM | OVCAR-4 10.3 µM | OVCAR-5 15.8 µM | OVCAR-8 17.3 µM | PC-3 8.97 µM | RPMI-8226 8.36 µM | SF-268 24.7 µM | SK-MEL-28 20.1 µM | SK-MEL-2 11.5 µM | SK-MEL-5 17.9 µM | SN12C 11.7 µM | SNB-19 20.8 µM | SNB-75 28.5 µM | SR 13.8 µM | SW-620 16.2 µM | T47D 10.8 µM | TK-10 25.1 µM | U-251 18.7 µM | UACC-257 19.1 µM | UACC-62 9.25 µM | UO-31 8.49 µM
